The source of these data is patent publication US20240116875A1, “RATIONAL DESIGN, OPTIMIZATION, AND BIOLOGICAL EVALUATION OF NOVEL MEK4 INHIBITORS AGAINST PANCREATIC ADENOCARCINOMA” (NORTHWESTERN UNIVERSITY, priority 2022, published 2024).

pIC50: −log10 of the molar value. Values joined by “and” are separate entries in the source; they are usually repeats but may differ in a detail not shown here. Equal entries are not always repeated. Where two headings read alike, the source gives them in different places. Some results are limits rather than exact numbers.

The target in one assay is T1, MEK7 (Homo sapiens, UniProt O14733).
T1 construct: purchased Carna Biosciences
T1 sequence (O14733 1-419): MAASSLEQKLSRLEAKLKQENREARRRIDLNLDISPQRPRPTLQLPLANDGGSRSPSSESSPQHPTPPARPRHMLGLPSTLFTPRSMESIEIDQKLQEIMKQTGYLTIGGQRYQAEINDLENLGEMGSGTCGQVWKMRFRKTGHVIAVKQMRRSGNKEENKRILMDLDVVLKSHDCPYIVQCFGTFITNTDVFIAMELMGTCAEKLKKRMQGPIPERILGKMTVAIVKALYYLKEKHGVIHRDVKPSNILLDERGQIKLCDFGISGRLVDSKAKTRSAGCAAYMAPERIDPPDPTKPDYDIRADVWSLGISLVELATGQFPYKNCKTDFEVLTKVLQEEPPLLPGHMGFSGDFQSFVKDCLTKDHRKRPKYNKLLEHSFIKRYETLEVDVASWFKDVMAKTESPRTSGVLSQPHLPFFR
Description: ADP-Glo kinase activity assay, MEK7. In kind it is biochemical. Here is the method: The compounds were then evaluated both in vitro and in a cellular system. When studying kinase inhibitors, there are a multitude of ways to evaluate selectivity across kinases.
(§1) Procedure for a 5 μL Kinase reaction using the ADP-Glo Kinase Assay Kit from Promega. Staurosporine was used as the positive control, and DMSO as the negative control. Activity of recombinant active full-length human MEK4 (Carna Biosciences) was measured using the ADP-Glo assay with recombinant full-length human p38α (MAPK14). Kinase reactions with MEK7 (Carna Biosciences) were done at the same concentration and amounts with recombinant full-length human p38α (MAPK14).
(§2) For each well, 4 ng of MEK4 and 600 ng of p38α in Kinase buffer (CST) were used, and 1 μL of this mixture was dispensed per well.
(§3) Inhibitor was prepared in a DMSO solution. A dose response dilution was done in a 384-well Echo transfer plate. […] This mixture was allowed to incubate for 30 minutes at room temperature.
(§4) Using a Mantis, 1 μL, of an 8 μM ATP solution was added to each well, and the plate was allowed to incubate for another 1 hour at room temperature. […] All experiments were done in triplicate on the plate, and at least in one separate technical duplicate.
Background: ADP-Glo turns the ADP formed in a reaction into a luminescent signal.

The target of assay [1] is T2, recombinant active full-length human MEK4 (Homo sapiens, UniProt P45985).
T2 construct: recombinant active full-length human MEK4 (Carna Biosciences); purchased Carna Biosciences
T2 sequence (P45985 1-399): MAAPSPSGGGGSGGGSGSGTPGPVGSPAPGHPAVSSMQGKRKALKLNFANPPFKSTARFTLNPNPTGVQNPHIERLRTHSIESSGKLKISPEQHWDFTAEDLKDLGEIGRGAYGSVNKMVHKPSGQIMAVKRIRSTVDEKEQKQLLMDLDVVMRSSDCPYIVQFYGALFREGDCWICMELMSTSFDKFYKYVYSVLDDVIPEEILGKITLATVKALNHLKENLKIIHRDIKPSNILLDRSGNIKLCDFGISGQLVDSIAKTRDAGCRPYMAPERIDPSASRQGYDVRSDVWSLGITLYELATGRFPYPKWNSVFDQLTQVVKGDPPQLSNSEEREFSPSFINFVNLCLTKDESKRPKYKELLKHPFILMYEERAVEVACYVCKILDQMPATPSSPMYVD
Description: ADP-Glo kinase activity assay, MEK4. In kind it is biochemical. Here is the method: as §1, §2, §3, §4

Assay [2] relates to phospho-p42/44 MAPK in CD18 cells. The experiment in a line: p42/44 MAPK phosphorylation, western blotting, CD18. In kind it is cell-based, human. As to conditions: CD18, U0126 1 μM or 5 μM, 1 hour pretreatment. The procedure: (§5) The effects of different treatments on phospho-p42/44 MAPK and total p42/44 MAPK expression levels were determined by western blotting. HSP90 was used as loading control. The blots are representative of at least three biological replicates.
(§6) Whole cell extracts of cultured cells were prepared in radioimmunoprecipitation (RIPA) lysis buffer supplemented with phosphatase and protease inhibitors (Calbiochem). Protein concentration was determined by the bicinchoninic acid assay (BCA) (ThermoFisher) and separated by the SDS-PAGE technique. […] Secondary anti-mouse IgG (A4416) and anti-rabbit IgG (A6667) antibodies were purchased from Sigma-Aldrich and used a 1:4000 dilution. Images of blots were acquired on HyBlot ES Autoradiography Film (Thomas Scientific, Swedesboro, NJ, USA) following incubation with SuperSignal West Pico PLUS (ThermoFisher).

For assay [3], the system named is phospho-p42/44 MAPK in MiaPaCa2 cells. The experiment in a line: p42/44 MAPK phosphorylation, western blotting, MiaPaCa2. In kind it is cell-based, human. Particulars: MiaPaCa2, U0126 1 μM or 5 μM. Here is the method:
as §5, §6

For assay [4], the system named is phospho-p42/44 MAPK in HEK293T cells. The experiment in a line: p42/44 MAPK (ERK1/2) phosphorylation, western blotting, HEK293T. In kind it is cell-based, human. Particulars: anisomycin alone. Here is the method: (§7) HSP90 was used as loading control. The blots are representative of at least three biological replicates.
(§8) We next evaluated the effects of our inhibitors on the phosphorylation activity and expression of MEK1/2, MEK3/6, and MEK7. […] We also evaluated the effects on p42/44 MAPK (ERK1/2), which functions downstream of MEK1/2.
as §6

For assay [5], the system named is phospho-p38 MAPK in HEK293T cells. Description: p38 MAPK phosphorylation, western blotting, HEK293T. In kind it is cell-based, human. As to conditions: anisomycin alone. The procedure:
as §7, §8, §6
Background: Immunoblotting shows a protein as a band on a membrane.

[6] abbreviates: headline value per compound, read-out: MEK7 IC50.
[7] abbreviates: individual experiment, values in brackets, n=3, read-out: MEK7 IC50 of each experiment (IC50±SEM).
Setting [8] is: headline value per compound, read-out: IC50 (MEK4, ADP-Glo).
[9] abbreviates: individual experiment, values in brackets, n=3, read-out: IC50 of each experiment (IC50±SEM), MEK4.

What is called pIC50 is the negative decadic logarithm of the IC50, by convention in mol/L. `O=S(=O)(NC1CC1)c1ccc(-c2n[nH]c3cc(F)ccc23)cc1` [Compound 13c, N-cyclopropyl-4-(6-fluoro-1H-indazol-3-yl)benzenesulfonamide]: the pIC50 at MEK7 (setting [6]) is 5.06; at MEK7 (setting [7]) it was 5.09 and 5.03.

As to `NS(=O)(=O)c1ccc(-c2n[nH]c3cc(C(F)(F)F)ccc23)cc1` [Compound S5, 4-(6-(trifluoromethyl)-1H-indazol-3-yl)benzenesulfonanamide], the pIC50 is 5.43 in assay [1] (setting [8]); 5.66 and 5.28 in assay [1] (setting [9]).

With `O=S(=O)(Nc1cccc(-c2n[nH]c3cc(F)ccc23)c1)C1CC1` [Compound 12c, N-(3-(6-fluoro-1H-indazol-3-yl)phenyl)cyclopropanesulfonamide], the pIC50 was 5.19 on MEK7 (setting [6]); 5.25 and 5.15 on MEK7 (setting [7]).

For the molecule `O=S(=O)(Nc1ccc(-c2n[nH]c3cc(F)ccc23)cc1)c1cccnc1` [Compound 11a, N-(4-(6-fluoro-1H-indazol-3-yl)phenyl)pyridine-3-sulfonamide], the pIC50 at MEK7 (setting [6]) is 5.57; at MEK7 (setting [7]) it was 5.72 and 5.46.

For the molecule `N#CC(=C(/N)Sc1ccccc1N)/C(C#N)=C(\N)Sc1ccccc1N` [Compound U0126, reference compound], in assay [2], the “effect of U0126 co-treatment on p42/44 MAPK phosphorylation increased by 15o and 10e” value was “suppressed”. Besides, the “effect of U0126 on p42/44 MAPK phosphorylation” value in assay [3] is listed as “decreased p42/44 MAPK phosphorylation”.

With `Cn1nc(-c2ccc3c(c2)OCO3)c2ccc(F)cc21` [Compound S2, 3-(benzo[d][1,3]dioxol-5-yl)-6-fluoro-1-methyl-1H-indazole], the pIC50 in assay [1] (setting [8]) was < 4.10.

Take `Cc1ccc2c(-c3ccc(S(N)(=O)=O)cc3)n[nH]c2c1` [Compound S4, 4-(6-methyl-1H-indazol-3-yl)benzenesulfonamide]: the pIC50 in assay [1] (setting [8]) was 5.57; in assay [1] (setting [9]) it was 5.80 and 5.43.

On to `CC(=O)c1ccc(NS(=O)(=O)c2cccc(-c3n[nH]c4cc(F)ccc34)c2)cc1` [Compound 15n, N-(4-acetylphenyl)-3-(6-fluoro-1H-indazol-3-yl)benzenesulfonamide], for which the pIC50 on MEK7 (setting [7]) is 6.13 and 5.89 and 5.74.

For `CCC(=O)Nc1ccccc1-c1n[nH]c2cc(F)ccc12` [Compound 8c, N-(2-(6-fluoro-1H-indazol-3-yl)phenyl)propionamide], the pIC50 in assay [1] (setting [8]) is < 4.10.

Regarding `Fc1ccc2c(-c3ccc4c(c3)OCO4)nn(Cc3ccccc3)c2c1` [Compound S3, 3-(benzo[d][1,3]dioxol-5-yl)-1-benzyl-6-fluoro-1H-indazole], the pIC50 in assay [1] (setting [8]) is < 4.10.

Regarding `O=S(=O)(Nc1cccc(-c2n[nH]c3cc(F)ccc23)c1)c1cccnc1` [Compound 12a, N-(3-(6-fluoro-1H-indazol-3-yl)phenyl)pyridine-3-sulfonamide], the pIC50 on MEK7 (setting [6]) is 5.89; on MEK7 (setting [7]), 6.03 and 5.80.

Consider `CS(=O)(=O)c1ccc(NS(=O)(=O)c2cccc(-c3n[nH]c4cc(F)ccc34)c2)cc1` [Compound 15l], for which the pIC50 at MEK7 (setting [6]) is 6.04; at MEK7 (setting [7]), 6.23 and 6.11 and 5.85.

`CC(C)Oc1ccc(NS(=O)(=O)c2cccc(-c3n[nH]c4cc(F)ccc34)c2)cc1` [Compound 15i, 3-(6-fluoro-1H-indazol-3-yl)-N-(4-isopropoxyphenyl)benzenesulfonamide]: the pIC50 at MEK7 (setting [6]) is 5.54; on MEK7 (setting [7]), 5.74 and 5.66 and 5.32.

Turning to `C=CC(=O)Nc1ccccc1-c1n[nH]c2cc(F)ccc12` [Compound 8d, N-(2-(6-fluoro-1H-indazol-3-yl)phenyl)acrylamide], the pIC50 in assay [1] (setting [8]) is < 4.10.

Take `COc1ccc(C[C@H]2NC[C@H](O)[C@H]2OC(C)=O)cc1` [anisomycin, reference compound]: in assay [4], the “effect of anisomycin on p42/44 MAPK phosphorylation” value is reported as “decreases p42/44 MAPK phosphorylation”. Besides, the “effect of anisomycin on p38 MAPK phosphorylation” value in assay [5] is listed as “did induce phosphorylation”.

For `O=S(=O)(Nc1ccccc1)c1cccc(-c2n[nH]c3cc(F)ccc23)c1` [Compound 14a, 3-(6-fluoro-1H-indazol-3-yl)-N-phenylbenzenesulfonamide], the negative-log IC50 (pIC50) is 6.08 on MEK7 (setting [6]); 6.40 and 6.21 and 5.82 at MEK7 (setting [7]).

On to `Nc1ccccc1-c1n[nH]c2cc(F)ccc12` [Compound 8b, 2-(6-fluoro-1H-indazol-3-yl)aniline], for which the pIC50 in assay [1] (setting [8]) was < 4.10.
